Measurements as given in US7915291B2, “Hepatitis C virus inhibitors” (Bristol-Myers Squibb Company, priority 2002, dated 2011).
Where two headings read alike, the source gives them in different places.

Columns and labels:
[1] = target: T1, human pancreatic chymotrypsin (Homo sapiens, UniProt P17538); test: Specificity assay, chymotrypsin; assay type: biochemical; conditions: 2 hr pre-incubation
T1 construct: purchased Sigma
Protocol: (§1) The specificities of compounds of the present invention were determined against a variety of serine proteases: human leukocyte elastase (HLE), porcine pancreatic elastase (PPE) and human pancreatic chymotrypsin and one cysteine protease: human liver cathepsin B. In all cases a 96-well plate format protocol using colorimetric p -nitroaniline (pNA) substrate specific for each enzyme was used as described previously (Patent WO 00/09543) with some modifications to the serine protease assays. All enzymes were purchased from Sigma while the substrates were from Bachem.
(§2) Each assay included a 2 hr enzyme-inhibitor pre-incubation at RT followed by addition of substrate and hydrolysis to ˜30% conversion as measured on a Spectramax Pro microplate reader. Compound concentrations varied from 100 to 0.4 μM depending on their potency. […]
(§3) The percentage of inhibition was calculated using the formula: [1−((UVinh−UVblank)/(UVctl−UVblank))]×100 […]

[2] = system: HCV replicon in Huh7 cells; test: HCV replicon cell-based assay; set-up: species or system HCV strain 1B; conditions: Hepatitis C virus, Huh-7, HCV replicon, Huh7 cells
[3] = target: T2, human leukocyte elastase (HLE) (Homo sapiens, UniProt P08246); test: Specificity assay, HLE; assay type: biochemical; conditions: 2 hr pre-incubation
T2 construct: purchased Sigma
T2 sequence (P08246 30-267): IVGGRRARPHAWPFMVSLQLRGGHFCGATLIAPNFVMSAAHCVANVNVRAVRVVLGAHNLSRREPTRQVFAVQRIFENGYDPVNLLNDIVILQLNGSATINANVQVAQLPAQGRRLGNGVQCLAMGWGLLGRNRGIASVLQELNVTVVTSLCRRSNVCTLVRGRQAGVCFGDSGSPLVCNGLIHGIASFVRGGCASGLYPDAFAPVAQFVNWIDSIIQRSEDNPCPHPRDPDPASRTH
Protocol: as §1, §2, §3

human liver cathepsin B = target: T3, human liver cathepsin B (Homo sapiens, UniProt P07858); test: Specificity assay, cathepsin B; assay type: biochemical; conditions: 2 hr pre-incubation
T3 construct: purchased Sigma; host or cells: human liver (as named)
Protocol: as §1, §2, §3

T1 sequence (P17538 19-263): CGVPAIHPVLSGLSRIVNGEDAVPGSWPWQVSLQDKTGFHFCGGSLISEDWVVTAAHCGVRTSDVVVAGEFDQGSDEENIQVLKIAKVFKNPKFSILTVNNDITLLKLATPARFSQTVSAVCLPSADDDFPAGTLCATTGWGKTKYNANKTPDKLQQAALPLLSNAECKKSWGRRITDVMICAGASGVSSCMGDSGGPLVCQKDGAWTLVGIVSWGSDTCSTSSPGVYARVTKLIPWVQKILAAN

C=C[C@@H]1C[C@]1(NC(=O)[C@@H]1C[C@@H](Oc2nc(C3CC3)cc3ccccc23)CN1C(=O)[C@@H](NC(=O)OC(C)(C)C)C(C)(C)C)C(=O)NS(=O)(=O)C1CC1 [Compound 34]
IC50 [1]: > 200000 nM
EC50 ([2]; read-out: EC50 range): 100 to 1000 nM
EC50 ([2]; read-out: EC50 value in the replicon assay): 166 nM
IC50 [3]: > 100000 nM
IC50 (human liver cathepsin B): > 200000 nM
